From US20260125370A1, “SULFOXIMINE COMPOUNDS AS HISTONE DEACETYLASE 6 INHIBITOR, AND PHARMACEUTICAL COMPOSITION COMPRISING THE SAME” (CHONG KUN DANG PHARMACEUTICAL CORP., priority 2022, published 2026) come the findings set out here.

For one experiment, the target named is T1, human recombinant HDAC6 (Homo sapiens, UniProt Q9UBN7).
T1 construct: purchased Calbiochem 382180
T1 sequence (Q9UBN7 1-1215): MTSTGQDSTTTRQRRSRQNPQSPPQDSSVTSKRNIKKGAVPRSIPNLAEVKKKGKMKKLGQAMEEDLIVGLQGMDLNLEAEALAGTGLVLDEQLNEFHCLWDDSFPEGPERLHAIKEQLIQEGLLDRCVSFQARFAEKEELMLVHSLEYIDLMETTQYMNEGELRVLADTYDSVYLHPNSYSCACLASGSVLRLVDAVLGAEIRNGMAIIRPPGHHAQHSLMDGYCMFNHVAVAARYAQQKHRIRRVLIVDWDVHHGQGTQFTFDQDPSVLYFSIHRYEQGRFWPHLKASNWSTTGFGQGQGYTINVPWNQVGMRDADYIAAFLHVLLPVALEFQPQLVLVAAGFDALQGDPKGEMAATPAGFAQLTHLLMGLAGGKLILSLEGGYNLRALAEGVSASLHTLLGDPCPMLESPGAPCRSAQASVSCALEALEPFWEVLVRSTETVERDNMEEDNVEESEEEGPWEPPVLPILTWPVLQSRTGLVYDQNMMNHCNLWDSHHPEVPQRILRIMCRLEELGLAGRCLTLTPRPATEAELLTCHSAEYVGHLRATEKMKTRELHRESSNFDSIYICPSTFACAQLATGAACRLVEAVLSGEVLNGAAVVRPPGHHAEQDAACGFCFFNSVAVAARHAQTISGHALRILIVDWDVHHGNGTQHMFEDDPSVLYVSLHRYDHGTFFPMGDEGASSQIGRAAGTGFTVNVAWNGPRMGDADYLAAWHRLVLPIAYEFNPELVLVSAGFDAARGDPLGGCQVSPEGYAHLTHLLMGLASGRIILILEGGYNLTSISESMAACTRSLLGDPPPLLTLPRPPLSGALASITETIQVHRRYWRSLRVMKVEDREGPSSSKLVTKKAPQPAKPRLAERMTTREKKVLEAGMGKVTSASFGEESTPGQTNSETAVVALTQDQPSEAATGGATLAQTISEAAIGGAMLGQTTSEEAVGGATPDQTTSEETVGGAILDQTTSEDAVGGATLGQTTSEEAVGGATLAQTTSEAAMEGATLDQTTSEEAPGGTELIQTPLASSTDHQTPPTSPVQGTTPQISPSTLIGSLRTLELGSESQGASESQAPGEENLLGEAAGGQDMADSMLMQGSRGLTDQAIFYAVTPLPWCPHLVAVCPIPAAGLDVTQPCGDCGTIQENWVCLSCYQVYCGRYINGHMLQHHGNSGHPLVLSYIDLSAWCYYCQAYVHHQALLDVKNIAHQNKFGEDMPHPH
Briefly: HDAC6 enzyme activity inhibition (fluorimetric, in vitro). Type of experiment: biochemical. Particulars: samples at 0.1, 1, 10, 100 and 1000 nM. How it is done: (§1) A HDAC enzyme inhibitory capacity of a test material was measured by using HDAC1 Fluorimetric Drug Discovery Assay Kit (Enzolifesciences: BML-AK511) and HDAC6 human recombinant (Calbiochem: 382180). For a HDAC1 assay, samples were treated at a concentration of 100, 1000 and 10000 nM. For a HDAC6 assay, samples were treated at a concentration of 0.1, 1, 10, 100 and 1000 nM.
(§2) For the test on the HDAC1 enzyme activity, human recombinant HDAC1 (BML-SE456) was used as a zymogen and Fluor de Lys®-SIRT1 (BNL-KI177) was used as a substrate. A 5-fold dilution of the compound was divided into a 96-well plate, after which 0.3 μg of the enzyme and […] of the substrate were inserted into each well and subjected to reaction at 37° C. for 60 minutes, such that Fluor de Lys® Developer II (BML-K1176) was inserted thereinto and subjected to reaction for 30 minutes and finished. After that, a fluorescence value (Ex 360, Em 460) was measured with a multi-plate reader (FlexStation 3, Molecular Device). An experiment on HDAC6 enzyme was conducted in accordance with the same protocol as in the HDAC1 enzyme activity test method by using human recombinant HDAC6 (382180) of Calbiochem Inc. For final result values, each IC50 value was calculated with GraphPad Prism 4.0 program.

For another experiment, the target named is T2, human recombinant HDAC1 (Homo sapiens, UniProt Q13547).
T2 construct: purchased Enzolifesciences BML-SE456
T2 sequence (Q13547 whole entry): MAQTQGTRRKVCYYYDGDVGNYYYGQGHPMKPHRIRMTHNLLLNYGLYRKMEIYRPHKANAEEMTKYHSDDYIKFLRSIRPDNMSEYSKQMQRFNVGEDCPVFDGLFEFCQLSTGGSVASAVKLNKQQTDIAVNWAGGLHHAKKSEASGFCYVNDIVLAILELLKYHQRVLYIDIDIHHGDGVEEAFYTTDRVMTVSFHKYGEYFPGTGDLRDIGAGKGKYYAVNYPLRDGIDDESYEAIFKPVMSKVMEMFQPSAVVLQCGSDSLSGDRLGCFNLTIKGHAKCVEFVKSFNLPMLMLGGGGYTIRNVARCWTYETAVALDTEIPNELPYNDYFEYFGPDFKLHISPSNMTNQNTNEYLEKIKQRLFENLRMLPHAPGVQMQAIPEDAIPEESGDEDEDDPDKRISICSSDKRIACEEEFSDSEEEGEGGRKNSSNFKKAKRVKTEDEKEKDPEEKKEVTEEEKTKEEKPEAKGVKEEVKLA
Put plainly: HDAC1 enzyme activity inhibition (HDAC1 Fluorimetric Drug Discovery Assay Kit, in vitro). Particulars: samples at 100, 1000 and 10000 nM. The experiment is classed as biochemical. How it is done: as §1, §2

Broadly, the IC50 is the concentration at which inhibition is half-maximal. Consider `N=S1(=O)CCN(S(=O)(=O)N(Cc2ccc(-c3nnc(C(F)F)o3)cn2)c2ccccc2)CC1` [Compound 19, N-((5-(5-(difluoromethyl)-1,3,4-oxadiazol-2-yl)pyridin-2-yl)methyl)-1-imino-N-phenylthiomorpholin-4-sulfonamide 1-oxide], for which the IC50 on human recombinant HDAC6 was 19.7 nM; at human recombinant HDAC1, > 10000 nM.

In the case of `N=S1(=O)CCN(C(=O)N(Cc2ccc(-c3nnc(C(F)F)o3)cc2F)c2ccc(Br)cc2)CC1` [Compound 20, N-(4-bromophenyl)-N-(4-(5-(difluoromethyl)-1,3,4-oxadiazol-2-yl)-2-fluorobenzyl)-1-iminothiomorpholin-4-carboxamide 1-oxide], the IC50 at human recombinant HDAC6 was 76.7 nM; on human recombinant HDAC1, > 10000 nM.

Turning to `N=S1(=O)CCN(C(=O)N(Cc2ccc(-c3nnc(C(F)F)o3)cc2F)c2ccc(SC(F)(F)F)cc2)CC1` [Compound 21, N-(4-(5-(difluoromethyl)-1,3,4-oxadiazol-2-y1)-2-fluorobenzyl)-1-imino-N-(4-((trifluoromethyl)thio)phenyl)thiomorpholin-4-carboxamide 1-oxide], the IC50 was 294 nM at human recombinant HDAC6 and > 10000 nM on human recombinant HDAC1.

Turning to `N=S1(=O)CCN(C(=O)N(Cc2ccc(-c3nnc(C(F)F)o3)cc2F)c2ccc3c(c2)CCO3)CC1` [Compound 22, N-(4-(5-(difluoromethyl)-1,3,4-oxadiazol-2-y1)-2-fluorobenzyl)-N-(2,3-dihydrobenzofuran-5-yl)-1-iminothiomorpholin-4-carboxamide 1-oxide], the figures for the IC50 at human recombinant HDAC6 and on human recombinant HDAC1 were 75.2 nM and > 10000 nM, respectively.

On to `N=S1(=O)CCN(C(=O)N(Cc2ccc(-c3nnc(C(F)F)o3)cc2F)c2ccc(-c3ccco3)cc2)CC1` [Compound 23, N-(4-(5-(difluoromethyl)-1,3,4-oxadiazol-2-yl)-2-fluorobenzyl)-N-(4-(furan-2-yl)phenyl)-1-iminothiomorpholin-4-carboxamide 1-oxide], for which the IC50 is 64.4 nM at human recombinant HDAC6 and > 10000 nM on human recombinant HDAC1.

Consider `N=S1(=O)CCN(C(=O)N(Cc2ccccc2)Cc2ccc(-c3nnc(C(F)F)o3)cc2F)CC1` [Compound 24, N-benzyl-N-(4-(5-(difluoromethyl)-1,3,4-oxadiazol-2-y1)-2-fluorobenzyl)-1-iminothiomorpholin-4-carboxamide 1-oxide], for which the IC50 at human recombinant HDAC6 was 1010 nM; on human recombinant HDAC1, > 10000 nM.

In the case of `COc1ccccc1N(Cc1ccc(-c2nnc(C(F)F)o2)cc1F)C(=O)N1CCS(=N)(=O)CC1` [Compound 25, N-(4-(5-(difluoromethyl)-1,3,4-oxadiazol-2-y1)-2-fluorobenzyl)-1-imino-N-(2-methoxyphenyl)thiomorpholin-4-carboxamide 1-oxide], the IC50 is 141 nM at human recombinant HDAC6 and > 10000 nM at human recombinant HDAC1.

Regarding `N=S1(=O)CCN(C(=O)N(Cc2ccc(-c3nnc(C(F)F)o3)cc2F)c2ccsc2)CC1` [Compound 26, N-(4-(5-(difluoromethyl)-1,3,4-oxadiazol-2-yl)-2-fluorobenzyl)-1-imino-N-(thiophen-3-yl)thiomorpholin-4-carboxamide 1-oxide], the IC50 is 98.6 nM on human recombinant HDAC6 and > 10000 nM on human recombinant HDAC1.

Regarding `COc1ccc(N(Cc2ccc(-c3nnc(C(F)F)o3)cc2F)C(=O)N2CCS(=N)(=O)CC2)cc1` [Compound 27, N-(4-(5-(difluoromethyl)-1,3,4-oxadiazol-2-y1)-2-fluorobenzyl)-1-imino-N-(4-methoxyphenyl)thiomorpholin-4-carboxamide 1-oxide], the IC50 is 86.6 nM on human recombinant HDAC6 and > 10000 nM at human recombinant HDAC1.

On to `N=S1(=O)CCN(C(=O)N(Cc2ccc(-c3nnc(C(F)F)o3)cc2F)c2ccc3c(c2)CCC3)CC1` [Compound 28, N-(4-(5-(difluoromethyl)-1,3,4-oxadiazol-2-y1)-2-fluorobenzyl)-N-(2,3-dihydro-1H-inden-5-yl)-1-iminothiomorpholin-4-carboxamide 1-oxide], for which the IC50 on human recombinant HDAC6 is 92.2 nM; at human recombinant HDAC1, > 10000 nM.

On to `CCOP(=O)(N=S1(=O)CCN(C(=O)N(Cc2ccc(-c3nnc(C(F)F)o3)cc2F)c2ccc(F)c(F)c2)CC1)OCC` [Compound 29, Diethyl (4-((4-(5-(difluoromethyl)-1,3,4-oxadiazol-2-yl)-2-fluorobenzyl)(3,4-difluorophenyl)carbamoyl)-1-oxidothiomorpholin-1-ylidene)phosphoramidate], for which the results for the half-maximal inhibitory concentration (IC50) on human recombinant HDAC6 and on human recombinant HDAC1 were 78.8 nM and > 10000 nM, respectively.

As for `CC(=O)N=S1(=O)CCN(C(=O)N(Cc2ccc(-c3nnc(C(F)F)o3)cn2)c2ccc(F)c(F)c2)CC1` [Compound 30, 1-(acetylimino)-N-((5-(5-(difluoromethyl)-1,3,4-oxadiazol-2-yl)pyridin-2-yl)methyl)-N-(3,4-difluorophenyl)thiomorpholin-4-carboxamide 1-oxide], the IC50 on human recombinant HDAC6 is 54.6 nM; at human recombinant HDAC1, > 10000 nM.

On to `N=S1(=O)CCN(C(=O)N(Cc2ccc(-c3nnc(C(F)F)o3)cc2F)c2cccc(C(F)(F)F)c2)CC1` [Compound 31, N-(4-(5-(difluoromethyl)-1,3,4-oxadiazol-2-y1)-2-fluorobenzyl)-1-imino-N-(3-(trifluoromethyl)phenyl)thiomorpholin-4-carboxamide 1-oxide], for which the IC50 was 91.4 nM on human recombinant HDAC6 and > 10000 nM on human recombinant HDAC1.

Turning to `Cc1cccc(N(Cc2ccc(-c3nnc(C(F)F)o3)cc2F)C(=O)N2CCS(=N)(=O)CC2)c1` [Compound 32, N-(4-(5-(difluoromethyl)-1,3,4-oxadiazol-2-y1)-2-fluorobenzyl)-1-imino-N-(m-tolyl)thiomorpholin-4-carboxamide 1-oxide], the figures for the half-inhibitory concentration (IC50) on human recombinant HDAC6 and at human recombinant HDAC1 were 80.6 nM and > 10000 nM, respectively.

In the case of `N=S1(=O)CCN(C(=O)N(Cc2ccc(-c3nnc(C(F)F)o3)cc2F)c2cc(F)ccc2F)CC1` [Compound 33, N-(4-(5-(difluoromethyl)-1,3,4-oxadiazol-2-y1)-2-fluorobenzyl)-N-(2,5-difluorophenyl)-1-iminothiomorpholin-4-carboxamide 1-oxide], the figures for the IC50 at human recombinant HDAC6 and at human recombinant HDAC1 were 51.3 nM and > 10000 nM, respectively.

As to `N=S1(=O)CCN(C(=O)N(Cc2ccc(-c3nnc(C(F)F)o3)cc2F)c2cccc(-n3cccc3)c2)CC1` [Compound 34, N-(3-(1H-pyrrol-1-yl)phenyl)-N-(4-(5-(difluoromethyl)-1,3,4-oxadiazol-2-y1)-2-fluorobenzyl)-1-iminothiomorpholin-4-carboxamide 1-oxide], the IC50 is 91.5 nM at human recombinant HDAC6 and > 10000 nM on human recombinant HDAC1.

For `N=S1(=O)CCN(S(=O)(=O)N(Cc2ccc(-c3nnc(C(F)F)o3)cc2F)c2cccc(F)c2)CC1` [Compound 35, N-(4-(5-(difluoromethyl)-1,3,4-oxadiazol-2-yl)-2-fluorobenzyl)-N-(3-fluorophenyl)-1-iminothiomorpholin-4-sulfonamide 1-oxide], the IC50 on human recombinant HDAC6 was 59.7 nM; on human recombinant HDAC1 it was > 10000 nM.

As for `N=S1(=O)CCN(S(=O)(=O)N(Cc2ccc(-c3nnc(C(F)F)o3)cn2)c2cccc(F)c2)CC1` [Compound 36, N-((5-(5-(difluoromethyl)-1,3,4-oxadiazol-2-yl)pyridin-2-yl)methyl)-N-(3-fluorophenyl)-1-iminothiomorpholin-4-sulfonamide 1-oxide], the figures for the IC50 on human recombinant HDAC6 and on human recombinant HDAC1 were 30.8 nM and > 10000 nM, respectively.
